Data reported in patent US20020142334A1, “Methods of detecting poly(ADP-ribose) polymerase enzymatic activity” (priority 2001, published 2002).
Read-outs that look alike come from different tables or passages of the source.

Assays:
PARP [1] = biological target: T1, PARP (Homo sapiens, UniProt P09874); conditions: reported values, see footnote; read-out: IC50 cited in the Literature; cited from earlier work
T1 construct: purchased R&D Systems, Inc. TA5334

PARP [2] = biological target: T1, PARP; test: commercially available [32P] NAD-based PARP assay (R&D Systems); type: biochemical; conditions: [32P]-NAD based kit
Procedure: The present method was conducted in the presence of known PARP inhibitors of varying potencies, tested at a range of concentrations. The experiment was conducted to determine if the IC50 values generated by the assay of the present invention were in agreement with previously reported IC50 values for these compounds and IC50 values generated by a commercially available [^32P] NAD-based PARP assay (R&D Systems, Inc., Minneapolis, Minn., Cat#TA5334). [^32P]-NAD was obtained from Amersham Pharmacia Biotech, Piscataway, N.J.

human PARP-1 = biological target: T2, human PARP-1 (Homo sapiens, UniProt P09874); test: Biotin-Avidin PARP assay (biotinylated NAD auto-ribosylation, immobilized PARP); type: biochemical
T2 construct: purchased Trevigen 4667-250-01
Procedure: ELISA plates (96-well) were coated with recombinant human PARP-1 overnight at 4° C.
Prior to the activity assay, the plates were washed three times in PBS-T.
The control reactions were carried out in the absence of sheared DNA in order to determine background activity for the reaction(s). […] The optical density for each sample was measured at 410 nm.
The inhibitors were first dissolved in DMSO and then serially diluted in DMSO to create stock solutions which were added to the auto-ribosylation buffer to achieve the desired range of final concentrations of the inhibitors in the nanomolar to millimolar range.

T1 sequence (P09874 whole entry): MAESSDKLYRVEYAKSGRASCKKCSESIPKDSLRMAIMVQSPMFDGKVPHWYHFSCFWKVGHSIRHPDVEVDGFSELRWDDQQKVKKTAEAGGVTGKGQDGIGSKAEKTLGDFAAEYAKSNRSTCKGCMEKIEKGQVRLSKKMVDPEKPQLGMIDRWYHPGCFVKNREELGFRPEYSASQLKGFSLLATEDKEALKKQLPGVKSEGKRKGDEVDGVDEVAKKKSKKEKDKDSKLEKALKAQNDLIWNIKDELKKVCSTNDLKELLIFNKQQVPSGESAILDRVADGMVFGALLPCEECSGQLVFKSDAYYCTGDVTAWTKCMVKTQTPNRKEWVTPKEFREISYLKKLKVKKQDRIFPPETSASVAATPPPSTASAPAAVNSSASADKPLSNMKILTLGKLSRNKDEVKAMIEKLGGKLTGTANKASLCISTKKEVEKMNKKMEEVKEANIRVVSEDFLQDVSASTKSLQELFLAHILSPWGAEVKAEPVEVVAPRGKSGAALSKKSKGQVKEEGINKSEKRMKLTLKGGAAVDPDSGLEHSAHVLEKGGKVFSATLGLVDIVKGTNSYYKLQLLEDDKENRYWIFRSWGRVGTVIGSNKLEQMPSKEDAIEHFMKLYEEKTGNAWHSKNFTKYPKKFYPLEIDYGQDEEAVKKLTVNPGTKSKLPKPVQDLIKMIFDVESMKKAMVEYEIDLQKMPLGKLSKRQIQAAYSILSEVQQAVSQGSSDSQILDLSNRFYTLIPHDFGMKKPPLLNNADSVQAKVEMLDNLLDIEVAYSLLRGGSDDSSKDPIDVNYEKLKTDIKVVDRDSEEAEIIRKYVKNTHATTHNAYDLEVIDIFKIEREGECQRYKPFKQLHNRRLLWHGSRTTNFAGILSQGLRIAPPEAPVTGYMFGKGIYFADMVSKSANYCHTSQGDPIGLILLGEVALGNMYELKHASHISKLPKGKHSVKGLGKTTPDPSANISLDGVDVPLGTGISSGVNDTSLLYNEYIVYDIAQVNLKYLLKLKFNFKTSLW
T2 sequence (P09874 whole entry): as above

| IC50 (PARP [2]) | IC50 (human PARP-1) | IC50 (human PARP-1; PARP-1 coated on plates overnight at 4° C., 25 μM biotinylated NAD, 100 μM unlabelled NAD, sheared DNA, read-out: Biotin Avidin PARP (IC50)) | SMILES | IC50 (PARP [1]) |
| --- | --- | --- | --- | --- |
| 318 nM | 460 nM |  | Cc1nc2c(O)cccc2c(=O)[nH]1 [Compound A, 8-hydroxy-2-methyl-quinazolin-4-[3H]-one] | 400 nM |
| 334 nM |  | 329 nM | NC(=O)c1cccc2cccc(C(=O)O)c12 [Compound B, 8-carboximido-napthalene-1-carboxylic acid] | 250 nM |
